According to ChEMBL document CHEMBL1201862, “PubChem BioAssay data set” (2004):
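Each compound was tested at five concentrations against cells in 96-well plates for 48 hours. The concentration for 50% growth inhibition is given as GI50.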 The source made the active and inactive calls. Cut-off read from the data, not from the text of the source: active = GI50 up to about 1.1 µM and inactive = higher.

How the values were obtained:
Experiment in all cases: NCI-60 cell line screen, 48 h
SN12C = test system: SN12C
A549 = test system: A549
LOX IMVI = test system: LOX IMVI
U-251 = test system: U-251
RPMI-8226 = test system: RPMI-8226
HL-60 = test system: HL-60
OVCAR-5 = test system: OVCAR-5
SF-268 = test system: SF-268
SK-MEL-28 = test system: SK-MEL-28
TK-10 = test system: TK-10
HCT-15 = test system: HCT-15
A498 = test system: A498
HT-29 = test system: HT-29
Hs-578T = test system: Hs-578T
KM12 = test system: KM12
COLO 205 = test system: COLO 205
UACC-257 = test system: UACC-257
HCT-116 = test system: HCT-116

## CN1C2=C(CC3=C1CC(C)(C)CC3=O)C(=O)CC(C)(C)C2
SN12C
  GI50: > 100 µM (inactive)
A549
  GI50: > 100 µM (inactive)
LOX IMVI
  GI50: > 100 µM (inactive)
U-251
  GI50: > 100 µM (inactive)
RPMI-8226
  GI50: > 100 µM (inactive)
HL-60
  GI50: > 100 µM (inactive)
OVCAR-5
  GI50: > 100 µM (inactive)
SF-268
  GI50: > 100 µM (inactive)
SK-MEL-28
  GI50: > 100 µM (inactive)
TK-10
  GI50: > 100 µM (inactive)
HCT-15
  GI50: > 100 µM
A498
  GI50: > 100 µM (inactive)
HT-29
  GI50: > 100 µM (inactive)
Hs-578T
  GI50: > 100 µM (inactive)
KM12
  GI50: > 100 µM (inactive)

## COC(=O)CC(SCCO)SCCO
SN12C
  GI50: > 100 µM (inactive)
A549
  GI50: > 100 µM (inactive)
COLO 205
  GI50: > 100 µM (inactive)
LOX IMVI
  GI50: > 100 µM (inactive)
RPMI-8226
  GI50: > 100 µM (inactive)
HL-60
  GI50: > 100 µM (inactive)
UACC-257
  GI50: > 100 µM (inactive)
OVCAR-5
  GI50: > 100 µM (inactive)
SF-268
  GI50: > 100 µM (inactive)
SK-MEL-28
  GI50: > 100 µM (inactive)
TK-10
  GI50: > 100 µM (inactive)
A498
  GI50: > 100 µM (inactive)
HT-29
  GI50: > 100 µM (inactive)
Hs-578T
  GI50: > 100 µM (inactive)
KM12
  GI50: > 100 µM (inactive)
HCT-116
  GI50: > 100 µM (inactive)

## COC(=O)C1=C(C(=O)OC)C(C(=O)OC)C(C(=O)OC)=C1C(=O)OC
SN12C
  GI50: > 100 µM (inactive)
A549
  GI50: > 100 µM (inactive)
COLO 205
  GI50: > 100 µM (inactive)
LOX IMVI
  GI50: > 100 µM (inactive)
U-251
  GI50: > 100 µM (inactive)
RPMI-8226
  GI50: > 100 µM (inactive)
HL-60
  GI50: > 100 µM (inactive)
UACC-257
  GI50: > 100 µM (inactive)
OVCAR-5
  GI50: > 100 µM (inactive)
SF-268
  GI50: > 100 µM (inactive)
SK-MEL-28
  GI50: > 100 µM (inactive)
TK-10
  GI50: > 100 µM (inactive)
HCT-15
  GI50: > 100 µM
HT-29
  GI50: > 100 µM (inactive)
KM12
  GI50: > 100 µM (inactive)

## CC[N+]1(C)CCC(O)(c2ccc(C)cc2)C(C(=O)c2ccc(C)cc2)C1 (stereo not given)
SN12C
  GI50: > 100 µM (inactive)
A549
  GI50: > 100 µM (inactive)
COLO 205
  GI50: 25.5 µM (inactive)
U-251
  GI50: > 100 µM (inactive)
RPMI-8226
  GI50: 10.9 µM (inactive)
HL-60
  GI50: 56.8 µM (inactive)
UACC-257
  GI50: 62.5 µM (inactive)
OVCAR-5
  GI50: 31 µM (inactive)
SF-268
  GI50: 34.8 µM (inactive)
TK-10
  GI50: 20.2 µM (inactive)
HCT-15
  GI50: 21.7 µM
A498
  GI50: > 100 µM (inactive)
HT-29
  GI50: 42.7 µM (inactive)
Hs-578T
  GI50: > 100 µM (inactive)
KM12
  GI50: > 100 µM (inactive)
HCT-116
  GI50: 51.8 µM (inactive)

## COc1cc([C@@H]2c3cc4c(cc3C[C@H]3COC(=O)[C@@H]32)OCO4)cc2c1OCO2 [AUSTROBAILIGNAN 1]
SN12C
  GI50: < 0.01 µM (active)
A549
  GI50: < 0.01 µM (active)
COLO 205
  GI50: 0.0108 µM (active)
LOX IMVI
  GI50: < 0.01 µM (active)
U-251
  GI50: < 0.01 µM (active)
RPMI-8226
  GI50: < 0.01 µM (active)
OVCAR-5
  GI50: < 0.01 µM (active)
SF-268
  GI50: < 0.01 µM (active)
SK-MEL-28
  GI50: < 0.01 µM (active)
TK-10
  GI50: 1.99 µM (inactive)
HCT-15
  GI50: < 0.01 µM
A498
  GI50: < 0.01 µM (active)
HT-29
  GI50: < 0.01 µM (active)
Hs-578T
  GI50: < 0.01 µM (active)
KM12
  GI50: 0.132 µM (active)
HCT-116
  GI50: < 0.01 µM (active)

## CC(=O)c1ccc2c(c1)oc(=O)n2CCN(C)C
COLO 205
  GI50: > 100 µM (inactive)
LOX IMVI
  GI50: > 100 µM (inactive)
U-251
  GI50: > 100 µM (inactive)
HL-60
  GI50: > 100 µM (inactive)
UACC-257
  GI50: > 100 µM (inactive)
OVCAR-5
  GI50: > 100 µM (inactive)
SF-268
  GI50: > 100 µM (inactive)
SK-MEL-28
  GI50: > 100 µM (inactive)
TK-10
  GI50: > 100 µM (inactive)
HCT-15
  GI50: > 100 µM
A498
  GI50: > 100 µM (inactive)
HT-29
  GI50: 93.8 µM (inactive)
Hs-578T
  GI50: 51.6 µM (inactive)
KM12
  GI50: > 100 µM (inactive)
HCT-116
  GI50: > 100 µM (inactive)

## CC(OC(C)(C)C)[C@H](NC(=O)OCc1ccccc1)C(=O)NC(OCc1ccccc1)[C@H]1COC(C)(C)O1 (stereo not given in full)
SN12C
  GI50: > 10 µM (inactive)
A549
  GI50: 39.3 µM (inactive)
COLO 205
  GI50: > 10 µM (inactive)
LOX IMVI
  GI50: > 10 µM (inactive)
U-251
  GI50: > 10 µM (inactive)
HL-60
  GI50: > 10 µM (inactive)
UACC-257
  GI50: > 10 µM (inactive)
OVCAR-5
  GI50: > 10 µM (inactive)
SF-268
  GI50: 40.3 µM (inactive)
SK-MEL-28
  GI50: > 100 µM (inactive)
TK-10
  GI50: > 10 µM (inactive)
HCT-15
  GI50: > 10 µM
A498
  GI50: > 10 µM (inactive)
HT-29
  GI50: > 10 µM (inactive)
Hs-578T
  GI50: > 10 µM (inactive)
KM12
  GI50: > 10 µM (inactive)
HCT-116
  GI50: 50.7 µM (inactive)
